Assays:
[1] = target: T1, EGFR tyrosine kinase (Homo sapiens, UniProt P00533); experiment: Protein tyrosine kinase phosphorylation assay, Test (a), EGFR; format: biochemical; conditions: recombinant intracellular fragment, ATP at Km; read-out: IC50 Test (a): Inhibition of EGFR tyrosine kinase protein phosphorylation
T1 construct: Recombinant intracellular fragments of EGFR, erbB2 and erbB4; made in house; host or cells: baculovirus/Sf21 insect cells (cleared lysate used)
Description: (§1) This test measures the ability of a test compound to inhibit the phosphorylation of a tyrosine containing polypeptide substrate by EGFR, erbB2 and erbB4 tyrosine kinase enzyme.
(§2) Recombinant intracellular fragments of EGFR, erbB2 and erbB4 (accession numbers X00588, X03363 and L07868 respectively) were cloned and expressed in the baculovirus/Sf21 system. […]
(§3) Constitutive kinase activity of these recombinant proteins was determined by their ability to phosphorylate a synthetic peptide (made up of a random co-polymer of Glutamic Acid, Alanine and Tyrosine in the ratio of 6:3:1). […]
(§4) The immobilised phospho-peptide product of the reaction was detected by immunological methods. […] After further washing, HRP activity in each well of the plate was measured colorimetrically using 22′-Azino-di-[3-ethylbenzthiazoline sulfonate (6)]diammonium salt crystals (ABTS™ from Roche) as a substrate.
(§5) Quantification of colour development and thus enzyme activity was achieved by the measurement of absorbance at 405 nm on a Molecular Devices ThermoMax microplate reader. Kinase inhibition for a given compound was expressed as an IC50 value. […] The range of phosphorylation was calculated from the positive (vehicle plus ATP) and negative (vehicle minus ATP) control values.

[2] = target: T2, erbB2 tyrosine kinase (Homo sapiens, UniProt P04626); experiment: Protein tyrosine kinase phosphorylation assay, Test (a), erbB2; format: biochemical; conditions: recombinant intracellular fragment, ATP at Km; read-out: IC50 Test (a): Inhibition of erbB2 tyrosine kinase protein phosphorylation
T2 construct: Recombinant intracellular fragments of EGFR, erbB2 and erbB4; made in house; host or cells: baculovirus/Sf21 insect cells (cleared lysate used)
T2 sequence (P04626 676-1255 limits assumed): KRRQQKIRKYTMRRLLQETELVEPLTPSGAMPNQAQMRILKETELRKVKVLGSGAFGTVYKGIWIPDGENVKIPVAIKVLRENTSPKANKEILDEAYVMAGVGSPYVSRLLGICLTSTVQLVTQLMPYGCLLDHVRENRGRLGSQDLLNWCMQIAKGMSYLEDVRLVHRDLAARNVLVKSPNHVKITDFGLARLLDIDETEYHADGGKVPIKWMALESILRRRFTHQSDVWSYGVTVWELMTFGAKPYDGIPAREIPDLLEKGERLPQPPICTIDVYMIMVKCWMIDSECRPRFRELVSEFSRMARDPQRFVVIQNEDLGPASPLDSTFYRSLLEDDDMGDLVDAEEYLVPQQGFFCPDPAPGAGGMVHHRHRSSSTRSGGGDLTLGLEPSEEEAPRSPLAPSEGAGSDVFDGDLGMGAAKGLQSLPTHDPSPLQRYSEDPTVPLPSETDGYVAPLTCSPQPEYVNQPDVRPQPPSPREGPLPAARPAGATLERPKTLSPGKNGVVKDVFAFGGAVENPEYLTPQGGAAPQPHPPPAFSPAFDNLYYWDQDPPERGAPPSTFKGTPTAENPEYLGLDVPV
Description: as §1, §2, §3, §4, §5

[3] = target: T3, erbB2 (Homo sapiens, UniProt P04626); experiment: Clone 24 phospho-erbB2 cell assay, Test (c); format: cell-based; conditions: MCF7 derived cell line (Clone 24) overexpressing erbB2, 4 hours; read-out: IC50 Test (c): Inhibition of erbB2 tyrosine kinase protein phosphorylation
T3 construct: a cell line that overexpresses full length wild type erbB2 protein; expressed in transfected cells; host or cells: MCF7 (breast carcinoma) derived 'Clone 24' cells
T3 sequence (P04626 23-1255): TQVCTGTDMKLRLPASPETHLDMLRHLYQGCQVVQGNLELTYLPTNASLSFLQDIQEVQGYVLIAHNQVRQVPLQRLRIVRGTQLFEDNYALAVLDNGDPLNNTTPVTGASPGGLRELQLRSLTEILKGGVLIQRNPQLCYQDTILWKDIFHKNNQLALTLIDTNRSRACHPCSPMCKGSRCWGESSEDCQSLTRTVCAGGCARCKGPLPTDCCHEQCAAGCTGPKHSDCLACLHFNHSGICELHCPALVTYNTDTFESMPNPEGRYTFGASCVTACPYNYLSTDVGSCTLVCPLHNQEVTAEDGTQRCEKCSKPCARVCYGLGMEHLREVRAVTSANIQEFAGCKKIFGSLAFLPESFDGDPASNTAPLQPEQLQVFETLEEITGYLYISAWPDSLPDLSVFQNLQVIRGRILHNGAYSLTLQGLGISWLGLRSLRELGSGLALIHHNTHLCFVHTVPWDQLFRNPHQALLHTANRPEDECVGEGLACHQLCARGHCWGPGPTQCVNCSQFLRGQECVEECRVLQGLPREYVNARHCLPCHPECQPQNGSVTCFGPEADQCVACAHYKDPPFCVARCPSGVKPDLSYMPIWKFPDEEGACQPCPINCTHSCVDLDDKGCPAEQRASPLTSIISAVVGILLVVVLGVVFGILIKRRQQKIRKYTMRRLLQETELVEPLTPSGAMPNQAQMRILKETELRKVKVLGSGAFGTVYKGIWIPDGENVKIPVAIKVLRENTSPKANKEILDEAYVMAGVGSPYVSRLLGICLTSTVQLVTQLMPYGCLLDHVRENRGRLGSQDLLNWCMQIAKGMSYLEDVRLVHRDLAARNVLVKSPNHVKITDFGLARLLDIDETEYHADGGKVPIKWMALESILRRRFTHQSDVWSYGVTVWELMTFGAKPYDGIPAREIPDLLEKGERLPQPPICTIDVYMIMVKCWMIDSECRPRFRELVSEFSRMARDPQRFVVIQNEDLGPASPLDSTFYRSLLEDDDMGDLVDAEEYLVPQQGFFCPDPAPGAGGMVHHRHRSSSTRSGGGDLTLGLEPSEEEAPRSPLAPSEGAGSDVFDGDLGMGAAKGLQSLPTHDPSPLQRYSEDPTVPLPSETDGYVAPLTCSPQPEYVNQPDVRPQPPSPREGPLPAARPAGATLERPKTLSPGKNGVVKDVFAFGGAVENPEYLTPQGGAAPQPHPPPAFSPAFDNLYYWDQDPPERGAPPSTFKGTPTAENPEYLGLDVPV
Description: This immunofluorescence end point assay measures the ability of a test compound to inhibit the phosphorylation of erbB2 in a MCF7 (breast carcinoma) derived cell line which was generated by transfecting MCF7 cells with the full length erbB2 gene using standard methods to give a cell line that overexpresses full length wild type erbB2 protein (hereinafter ‘Clone 24’ cells).
Clone 24 cells were cultured in Growth Medium (phenol red free Dulbecco's modified Eagle's medium (DMEM) containing 10% foetal bovine serum, 2 mM glutamine and 1.2 mg/ml G418) in a 7.5% CO2 air incubator at 37° C. […] Cell density was measured using a haemocytometer and viability was calculated using Trypan Blue solution before being further diluted in Growth Medium and seeded at a density of 1×10^4 cells per well (in 100 μl) into clear bottomed 96 well plates (Packard, No. 6005182). […]
Immunostaining was performed at room temperature. […] Plates were analysed within six hours of completing the immunostaining.
The Fluorescence signal is each well was measured using an Acumen Explorer Instrument (Acumen Bioscience Ltd.), a plate reader that can be used to rapidly quantitate features of images generated by laser-scanning. […]

T1 sequence (P00533 669-1210 limits assumed): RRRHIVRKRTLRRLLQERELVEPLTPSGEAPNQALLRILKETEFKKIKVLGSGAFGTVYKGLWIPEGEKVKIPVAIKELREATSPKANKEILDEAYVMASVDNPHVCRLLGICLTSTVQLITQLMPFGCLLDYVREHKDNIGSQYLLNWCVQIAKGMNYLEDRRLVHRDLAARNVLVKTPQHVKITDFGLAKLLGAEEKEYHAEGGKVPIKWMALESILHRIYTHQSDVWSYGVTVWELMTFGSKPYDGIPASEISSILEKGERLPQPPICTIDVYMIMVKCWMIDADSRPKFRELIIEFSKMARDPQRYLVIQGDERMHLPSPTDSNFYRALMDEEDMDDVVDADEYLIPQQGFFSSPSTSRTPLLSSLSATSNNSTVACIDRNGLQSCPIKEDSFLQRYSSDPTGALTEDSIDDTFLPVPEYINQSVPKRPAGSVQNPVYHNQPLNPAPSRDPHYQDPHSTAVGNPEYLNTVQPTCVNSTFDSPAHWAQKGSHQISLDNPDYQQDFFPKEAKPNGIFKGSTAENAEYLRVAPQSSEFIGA

SMILES	IC50 [1] [nM]	IC50 [2] [nM]	IC50 [3] [nM]
O=C(CO)N1CCC[C@@H]1COc1cccc2ncnc(Nc3ccc4c(cnn4Cc4ccccn4)c3)c12 [Example 1, 2-Oxo-2-((2R)-2-{[(4-{[1-(pyridin-2-ylmethyl)-1H-indazol-5-yl]amino}quinazolin-5-yl)oxy]methyl}pyrrolidin-1-yl)ethanol]	310	6	380
O=C(CO)N1CCCC[C@@H]1COc1cccc2ncnc(Nc3ccc4c(cnn4Cc4ccccn4)c3)c12 [Example 4, 2-Oxo-2-((2R)-2-{[(4-{[1-(pyridin-2-ylmethyl)-1H-indazol-5-yl]amino}quinazolin-5-yl)oxy]methyl}piperidin-1-yl)ethanol]	61	5	44

Source: US20090137615A1, “INDAZOLYLAMINO QUINAZOLINE DERIVATIVES AS ANTITUMOUR AGENTS” (priority 2005, published 2009)
